These results are taken from patent publication US20100196308A1, “VITAMIN D3 AND ANALOGS THEREOF FOR ALLEVIATING SIDE EFFECTS ASSOCIATED WITH CHEMOTHERAPY” (priority 2009, published 2010).

A word on the viability: it is a per cent measure of how many cells are alive, often set against a control. High values mean better survival, low ones a greater loss of cells.

Data set [1] relates to Peripheral circulating progenitor stem cells. Description: Colony formation assay in semi-solid agar medium with GM-CSF and G-CSF. To be noted: Group 2: 0.05 μg/mL 1,25(OH)2D3 for 24 hours, no 4-HC; mean ± SD, quadruplicates. In kind it is cell-based, human. The source says: Tissue culture grade agar, fetal calf serum (FCS), and powdered Dulbecco's Modified Eagle's Medium (DMEM) were obtained from Invitrogen (Carlsbad, Calif.). Peripheral circulating progenitor stem cells were obtained by venipuncture of the saphenous vein of a healthy donor into sodium heparin vacutainers (Becton, Dickinson and Company, Franklyn Lakes N.J.). The buffy coat was obtained by gradient centrifugation using histopaque 1077 as per manufacturer's instructions. Cells were washed twice with RMPI 1640 supplemented with 10% fetal calf serum (Invitrogen). […] Cells were cultured for 14 days in a 5% CO2 incubator, with 100% humidity at 37° C. At the end of the culture period, colonies (clusters of 50 or more cells) were counted using an inverted microscope by two independent viewers. Peripheral stem cells were randomized into 4 groups at a concentration of 5×10^5 cells/mL in DMEM supplemented with 10% fetal calf serum. Group 1 was an untreated control, group 2 was incubated for 24 hours with 0.05 μg/mL of 1,25(OH)2D3, group 3 was incubated for 24 hours with 0.05 μg/mL of 1,25(OH)2D3, group 4 was untreated. Cells were washed with DMEM 10% fetal calf serum. Groups 3 and 4 were then incubated with 25 μg/mL of 4-HC for 20 hours. Subsequently, all groups were washed twice as previously described. Cells were then plated in semi-solid agar medium as described above.

A further data set deals with bone marrow progenitors. Briefly: Bone marrow cultures (colony counts) from chemotherapy-treated chloroleukemic rats. As to the method:
To assay the Colony-Forming Activity of bone marrow progenitors and MIAC51 cells, bone marrow cells are obtained as previously described (Jimenez and Yunis, 1988), and are washed with serum free DMEM. Cells are then suspended to a concentration of 1×10^6/mL and layered onto a gradient for centrifugation for 40 minutes at 400 g. The pellet found between the medium and gradient is then carefully aspirated and washed in serum free DMEM two times. Finally, a cell suspension containing 1×10^5 cells/mL is prepared in DMEM supplemented with 10% fetal bovine serum, and incubated in tissue culture plates for 3 hours. The non-adherent cells are aspirated and transferred to semi-solid agar culture plates.
To prepare semi-solid agar medium, powdered MEM is reconstituted in tissue-culture grade water to a concentration of 2×. Agar (0.3%) is then added and the mixture is boiled until the agar is fully dissolved (Perkins and Yunis, 1986). The medium is cooled to 37° C. and essential amino acids which might have been depleted during the boiling process are then added. The semi-solid medium is then distributed onto multi-well clusters, filling one well with tissue culture grade water to avoid further evaporation. At this point, G- or GM-CSF are added following manufacturer's procedure, and the bone marrow cell suspension or MIAC51 cells are added by careful pipetting in order to avoid bubbles. Colonies are counted 7 days later.
Bone marrow cultures were performed on days 22, 25 and 32. On day 32, a complete leukocyte count was performed in all animals and those who were positive for MIAC51 were sacrificed.

In data set [2] the test system is Long Evans rats injected with MIAC51. Briefly: Absolute neutrophil counts in chloroleukemic rats under chemotherapy regimens. Particulars: for Nadir ANC without calcitriol treatment: chemotherapy + vehicle. As to the method: For the first cycle of experiments, 15-day old Long Evans rats were injected with MIAC51. […] Starting on day 20 through 32, complete granulocyte counts were then performed by puncturing the tail vein with a 27 gauge syringe while animals were manually restrained.
Neutrophil counts were measured by puncturing the tail vein as described above. […] On day 52, rats were randomized into 3 groups for each chemotherapy regimen.

Data set [3] can be described thus: Viability of myeloid cells by trypan blue exclusion. In kind it is cell-based. To be noted: human, 24-hour exposure, RPMI 1640 with 10% fetal calf serum (FIG. 2). The method, then:
Varying doses of 1,25(OH)2D3 were applied to the myeloid cells. A graph of the effects of 1,25(OH)2D3 on myeloid cells is provided as FIG. 2. The viability of the myeloid cells was determined by trypan blue exclusion after a 24-hour exposure to varying doses of 1,25(OH)2D3. For these experiments, 2.5×10^5 cells/mL were incubated with different doses of 1,25(OH)2D3 (0.01 μg/mL, 0.1 μg/mL, 0.5 μg/mL, 0.75 μg/mL, 1 μg/mL, and 10 μg/mL) for 24 hours in RPMI 1640 supplemented with 10% fetal calf serum.

Data set [4] in a line: Calcium levels in chemotherapy-treated chloroleukemic rats. The source says:
On days 22, 26, 49 and 53, blood from 3 animals is collected by cardiac puncture. All blood samples are collected in a vial for analysis of calcium levels. All animals used for bone marrow cultures are anesthetized and exsanguinated prior to obtaining the bone marrow.

For the next data set, the system named is MIAC51. To be noted: stated in the power analysis of Example 2.

Regarding `C=C1/C(=C\C=C2/CCC[C@]3(C)[C@@H]([C@H](C)CCCC(C)(C)O)CC[C@@H]23)C[C@@H](O)C[C@@H]1O` [calcitriol, 1,25-dihydroxyvitamin D3], in data set [1], the “Colony Counts at 14 Days” value is 48 ± 6. Also, the “colony count of bone marrow cultures” value worked out at 56±17 colonies with bone marrow progenitors (day 22, first cycle, cyclophosphamide and calcitriol (FIG. 4a)); 80±15 colonies in the data set on bone marrow progenitors (day 25, first cycle, cyclophosphamide and calcitriol (FIG. 5a)); 82±25 colonies in the data set on bone marrow progenitors (day 40 (so in the source), second cycle, cyclophosphamide and calcitriol); 86±25 colonies in the data set with bone marrow progenitors (day 52, second cycle, cyclophosphamide and calcitriol). In addition, the “Nadir ANC with calcitriol treatment” value in data set [2] (first cycle, 10 μg calcitriol pulse, cyclophosphamide (150 mg/kg) regimen) is recorded as 2154 ± 147/mm^3; in data set [2] (first cycle, 10 μg calcitriol pulse, cyclophosphamide and doxorubicin (100 mg/kg, 25 mg/kg) regimen), 2365 ± 145/mm^3; in data set [2] (first cycle, 10 μg calcitriol pulse, cyclophosphamide, doxorubicin and paclitaxel (100, 25, 10 mg/kg) regimen), 2365 ± 125/mm^3; in data set [2] (second cycle, 20 μg calcitriol, cyclophosphamide and doxorubicin regimen), 2417 ± 136/mm^3; in data set [2] (second cycle, 20 μg calcitriol, cyclophosphamide regimen), 2451 ± 235/mm^3; in data set [2] (second cycle, 20 μg calcitriol, cyclophosphamide, doxorubicin and paclitaxel regimen) it was 2364 ± 136/mm^3. Besides, in data set [2] (first cycle, all three chemotherapy regimens), the “effect on nadir ANC” value is recorded as “significantly decreases the nadir ANC”. In addition, the “protection against chemotherapy-induced neutropenia” value in data set [2] (second cycle, all three chemotherapy regimens) is listed as “significantly protects against chemotherapy-induced neutropenia in all three chemotherapy regimens”. Besides, the viability at 24 h, 0.05 μg/mL in data set [3] turned out to be 90%. Also, the hypercalcemia entry in data set [4] (rat, in vivo) is “did not induce hypercalcemia”.

In the case of Cyclophosphamide, the Remission rate entry in the data set with MIAC51 is “at least 20%”. Moreover, the “colony count of bone marrow cultures” value in the data set on bone marrow progenitors (day 22, first cycle, cyclophosphamide and vehicle) amounted to 5±1 colonies; with bone marrow progenitors (day 25, first cycle, cyclophosphamide and vehicle) it was 12±4 colonies; in the data set on bone marrow progenitors (day 40 (so in the source), second cycle, cyclophosphamide and vehicle), 4.5±1 colonies; in the data set on bone marrow progenitors (day 52, second cycle, cyclophosphamide-treated), 7±2.5 colonies. Also, the “Nadir ANC without calcitriol treatment” value in data set [2] (first cycle) was 245 ± 25/mm^3; in data set [2] (second cycle), 236 ± 32/mm^3. Further, the “Calcium Levels” value in data set [4] (Day 22, Chemo + Vehicle) amounted to 11 ± 0.3 mg/dL; in data set [4] (Day 25, Chemo + Vehicle), 9.5 ± 0.2 mg/dL; in data set [4] (Day 32, Chemo + Vehicle), 9.5 ± 0.5 mg/dL; in data set [4] (Day 49, Chemo + Vehicle) it was 11 ± 0.2 mg/dL; in data set [4] (Day 52, Chemo + Vehicle), 10 ± 0.5 mg/dL; in data set [4] (Day 60, Chemo + Vehicle) it was 11 ± 0.4 mg/dL.
